Laboratory results: ChEMBL document CHEMBL5724914, “Linking interpersonal differences in gut microbiota composition and drug biotransformation activity” (2024)

settings: human gut metagenome, 24 h, 2 µM
Further: call rule not given here.

Bacterial Biotransformation	Structure (SMILES)
Compound metabolized	CCOC(=O)[C@H](CCc1ccccc1)N[C@@H](C)C(=O)N1[C@H](C(=O)O)C[C@H]2CCCC[C@@H]21 [TRANDOLAPRIL]
Compound NOT metabolized	C[C@@H]1C[C@H]2[C@@H]3CCC4=CC(=O)C=C[C@]4(C)[C@@]3(F)[C@@H](O)C[C@]2(C)[C@@]1(O)C(=O)CO [DEXAMETHASONE]

assay: (§1) The drug is tested on WLS-039 corresponding to human gut metagenome with ENA study accession number: PRJEB37062 and ENA sample accession number: ERS12561746 for biotransformation under anaerobic condition. The drug concentrations were measured over 9 timepoints collected between 0 and 24 hours of incubation by liquid-chromatography-coupled mass spectrometry (LC–MS); settings: 2 µM

Bacterial Biotransformation	Structure (SMILES)
Compound metabolized	CCOC(=O)[C@H](CCc1ccccc1)N[C@@H](C)C(=O)N1[C@H](C(=O)O)C[C@H]2CCCC[C@@H]21 [TRANDOLAPRIL]
Compound NOT metabolized	C[C@@H]1C[C@H]2[C@@H]3CCC4=CC(=O)C=C[C@]4(C)[C@@]3(F)[C@@H](O)C[C@]2(C)[C@@]1(O)C(=O)CO [DEXAMETHASONE]

settings: human gut metagenome, 24 h, 2 µM; remark: another data set of the same source

Bacterial Biotransformation	Structure (SMILES)
Compound NOT metabolized	CCOC(=O)[C@H](CCc1ccccc1)N[C@@H](C)C(=O)N1[C@H](C(=O)O)C[C@H]2CCCC[C@@H]21 [TRANDOLAPRIL]
Compound NOT metabolized	C[C@@H]1C[C@H]2[C@@H]3CCC4=CC(=O)C=C[C@]4(C)[C@@]3(F)[C@@H](O)C[C@]2(C)[C@@]1(O)C(=O)CO [DEXAMETHASONE]

assay: as §1, with “WLS-052” for “WLS-039”, “ERS12561747” for “ERS12561746”; settings: 2 µM

Bacterial Biotransformation	Structure (SMILES)
Compound metabolized	CCOC(=O)[C@H](CCc1ccccc1)N[C@@H](C)C(=O)N1[C@H](C(=O)O)C[C@H]2CCCC[C@@H]21 [TRANDOLAPRIL]
Compound NOT metabolized	C[C@@H]1C[C@H]2[C@@H]3CCC4=CC(=O)C=C[C@]4(C)[C@@]3(F)[C@@H](O)C[C@]2(C)[C@@]1(O)C(=O)CO [DEXAMETHASONE]

settings: human gut metagenome, 24 h, 2 µM; remark: another data set of the same source

Bacterial Biotransformation	Structure (SMILES)
Compound metabolized	CCOC(=O)[C@H](CCc1ccccc1)N[C@@H](C)C(=O)N1[C@H](C(=O)O)C[C@H]2CCCC[C@@H]21 [TRANDOLAPRIL]
Compound NOT metabolized	C[C@@H]1C[C@H]2[C@@H]3CCC4=CC(=O)C=C[C@]4(C)[C@@]3(F)[C@@H](O)C[C@]2(C)[C@@]1(O)C(=O)CO [DEXAMETHASONE]

settings: human gut metagenome, 24 h, 2 µM; remark: another data set of the same source

Bacterial Biotransformation	Structure (SMILES)
Compound metabolized	CCOC(=O)[C@H](CCc1ccccc1)N[C@@H](C)C(=O)N1[C@H](C(=O)O)C[C@H]2CCCC[C@@H]21 [TRANDOLAPRIL]
Compound NOT metabolized	C[C@@H]1C[C@H]2[C@@H]3CCC4=CC(=O)C=C[C@]4(C)[C@@]3(F)[C@@H](O)C[C@]2(C)[C@@]1(O)C(=O)CO [DEXAMETHASONE]

assay: as §1, with “WLS-098” for “WLS-039”, “ERS12561754” for “ERS12561746”; settings: 2 µM

Bacterial Biotransformation	Structure (SMILES)
Compound metabolized	CCOC(=O)[C@H](CCc1ccccc1)N[C@@H](C)C(=O)N1[C@H](C(=O)O)C[C@H]2CCCC[C@@H]21 [TRANDOLAPRIL]
Compound NOT metabolized	C[C@@H]1C[C@H]2[C@@H]3CCC4=CC(=O)C=C[C@]4(C)[C@@]3(F)[C@@H](O)C[C@]2(C)[C@@]1(O)C(=O)CO [DEXAMETHASONE]

assay: as §1, with “WLS-027” for “WLS-039”, “ERS12561744” for “ERS12561746”; settings: 2 µM

Bacterial Biotransformation	Structure (SMILES)
Compound metabolized	CCOC(=O)[C@H](CCc1ccccc1)N[C@@H](C)C(=O)N1[C@H](C(=O)O)C[C@H]2CCCC[C@@H]21 [TRANDOLAPRIL]
Compound NOT metabolized	C[C@@H]1C[C@H]2[C@@H]3CCC4=CC(=O)C=C[C@]4(C)[C@@]3(F)[C@@H](O)C[C@]2(C)[C@@]1(O)C(=O)CO [DEXAMETHASONE]

settings: human gut metagenome, 24 h, 2 µM; remark: another data set of the same source

Bacterial Biotransformation	Structure (SMILES)
Compound metabolized	CCOC(=O)[C@H](CCc1ccccc1)N[C@@H](C)C(=O)N1[C@H](C(=O)O)C[C@H]2CCCC[C@@H]21 [TRANDOLAPRIL]
Compound NOT metabolized	C[C@@H]1C[C@H]2[C@@H]3CCC4=CC(=O)C=C[C@]4(C)[C@@]3(F)[C@@H](O)C[C@]2(C)[C@@]1(O)C(=O)CO [DEXAMETHASONE]

settings: human gut metagenome, 24 h, 2 µM; remark: another data set of the same source

Bacterial Biotransformation	Structure (SMILES)
Compound NOT metabolized	CCOC(=O)[C@H](CCc1ccccc1)N[C@@H](C)C(=O)N1[C@H](C(=O)O)C[C@H]2CCCC[C@@H]21 [TRANDOLAPRIL]
Compound NOT metabolized	C[C@@H]1C[C@H]2[C@@H]3CCC4=CC(=O)C=C[C@]4(C)[C@@]3(F)[C@@H](O)C[C@]2(C)[C@@]1(O)C(=O)CO [DEXAMETHASONE]

settings: human gut metagenome, 24 h, 2 µM; remark: another data set of the same source

Bacterial Biotransformation	Structure (SMILES)
Compound metabolized	CCOC(=O)[C@H](CCc1ccccc1)N[C@@H](C)C(=O)N1[C@H](C(=O)O)C[C@H]2CCCC[C@@H]21 [TRANDOLAPRIL]
Compound NOT metabolized	C[C@@H]1C[C@H]2[C@@H]3CCC4=CC(=O)C=C[C@]4(C)[C@@]3(F)[C@@H](O)C[C@]2(C)[C@@]1(O)C(=O)CO [DEXAMETHASONE]

assay: as §1, with “Z-021” for “WLS-039”, “to” for “to human gut”, “ERS12561820” for “ERS12561746”; settings: 2 µM

Bacterial Biotransformation	Structure (SMILES)
Compound NOT metabolized	CCOC(=O)[C@H](CCc1ccccc1)N[C@@H](C)C(=O)N1[C@H](C(=O)O)C[C@H]2CCCC[C@@H]21 [TRANDOLAPRIL]
Compound metabolized	C[C@@H]1C[C@H]2[C@@H]3CCC4=CC(=O)C=C[C@]4(C)[C@@]3(F)[C@@H](O)C[C@]2(C)[C@@]1(O)C(=O)CO [DEXAMETHASONE]

assay: as §1, with “Z-023” for “WLS-039”, “to” for “to human gut”, “ERS12561822” for “ERS12561746”; settings: 2 µM

Bacterial Biotransformation	Structure (SMILES)
Compound metabolized	CCOC(=O)[C@H](CCc1ccccc1)N[C@@H](C)C(=O)N1[C@H](C(=O)O)C[C@H]2CCCC[C@@H]21 [TRANDOLAPRIL]
Compound metabolized	C[C@@H]1C[C@H]2[C@@H]3CCC4=CC(=O)C=C[C@]4(C)[C@@]3(F)[C@@H](O)C[C@]2(C)[C@@]1(O)C(=O)CO [DEXAMETHASONE]

assay: as §1, with “Z-011” for “WLS-039”, “mouse” for “human”, “ERS12561811” for “ERS12561746”; settings: 2 µM

Bacterial Biotransformation	Structure (SMILES)
Compound NOT metabolized	CCOC(=O)[C@H](CCc1ccccc1)N[C@@H](C)C(=O)N1[C@H](C(=O)O)C[C@H]2CCCC[C@@H]21 [TRANDOLAPRIL]
Compound NOT metabolized	C[C@@H]1C[C@H]2[C@@H]3CCC4=CC(=O)C=C[C@]4(C)[C@@]3(F)[C@@H](O)C[C@]2(C)[C@@]1(O)C(=O)CO [DEXAMETHASONE]

assay: as §1, with “WLS-010” for “WLS-039”, “ERS12561743” for “ERS12561746”; settings: 2 µM

Bacterial Biotransformation	Structure (SMILES)
Compound metabolized	CCOC(=O)[C@H](CCc1ccccc1)N[C@@H](C)C(=O)N1[C@H](C(=O)O)C[C@H]2CCCC[C@@H]21 [TRANDOLAPRIL]
Compound metabolized	C[C@@H]1C[C@H]2[C@@H]3CCC4=CC(=O)C=C[C@]4(C)[C@@]3(F)[C@@H](O)C[C@]2(C)[C@@]1(O)C(=O)CO [DEXAMETHASONE]

assay: as §1, with “Z-006” for “WLS-039”, “mouse” for “human”, “ERS12561806” for “ERS12561746”; settings: 2 µM

Bacterial Biotransformation	Structure (SMILES)
Compound NOT metabolized	CCOC(=O)[C@H](CCc1ccccc1)N[C@@H](C)C(=O)N1[C@H](C(=O)O)C[C@H]2CCCC[C@@H]21 [TRANDOLAPRIL]
Compound NOT metabolized	C[C@@H]1C[C@H]2[C@@H]3CCC4=CC(=O)C=C[C@]4(C)[C@@]3(F)[C@@H](O)C[C@]2(C)[C@@]1(O)C(=O)CO [DEXAMETHASONE]

assay: as §1, with “Z-025” for “WLS-039”, “rabbit” for “human”, “ERS12561824” for “ERS12561746”; settings: 2 µM

Bacterial Biotransformation	Structure (SMILES)
Compound NOT metabolized	CCOC(=O)[C@H](CCc1ccccc1)N[C@@H](C)C(=O)N1[C@H](C(=O)O)C[C@H]2CCCC[C@@H]21 [TRANDOLAPRIL]
Compound NOT metabolized	C[C@@H]1C[C@H]2[C@@H]3CCC4=CC(=O)C=C[C@]4(C)[C@@]3(F)[C@@H](O)C[C@]2(C)[C@@]1(O)C(=O)CO [DEXAMETHASONE]

settings: human gut metagenome, 24 h, 2 µM; remark: another data set of the same source

Bacterial Biotransformation	Structure (SMILES)
Compound NOT metabolized	CCOC(=O)[C@H](CCc1ccccc1)N[C@@H](C)C(=O)N1[C@H](C(=O)O)C[C@H]2CCCC[C@@H]21 [TRANDOLAPRIL]
Compound NOT metabolized	C[C@@H]1C[C@H]2[C@@H]3CCC4=CC(=O)C=C[C@]4(C)[C@@]3(F)[C@@H](O)C[C@]2(C)[C@@]1(O)C(=O)CO [DEXAMETHASONE]

settings: human gut metagenome, 24 h, 2 µM; remark: another data set of the same source

Bacterial Biotransformation	Structure (SMILES)
Compound NOT metabolized	CCOC(=O)[C@H](CCc1ccccc1)N[C@@H](C)C(=O)N1[C@H](C(=O)O)C[C@H]2CCCC[C@@H]21 [TRANDOLAPRIL]
Compound NOT metabolized	C[C@@H]1C[C@H]2[C@@H]3CCC4=CC(=O)C=C[C@]4(C)[C@@]3(F)[C@@H](O)C[C@]2(C)[C@@]1(O)C(=O)CO [DEXAMETHASONE]

assay: as §1, with “Z-022” for “WLS-039”, “mouse” for “human”, “ERS12561821” for “ERS12561746”; settings: 2 µM

Bacterial Biotransformation	Structure (SMILES)
Compound NOT metabolized	CCOC(=O)[C@H](CCc1ccccc1)N[C@@H](C)C(=O)N1[C@H](C(=O)O)C[C@H]2CCCC[C@@H]21 [TRANDOLAPRIL]
Compound metabolized	C[C@@H]1C[C@H]2[C@@H]3CCC4=CC(=O)C=C[C@]4(C)[C@@]3(F)[C@@H](O)C[C@]2(C)[C@@]1(O)C(=O)CO [DEXAMETHASONE]
